Like-named read-outs stand apart in the source and are kept apart here.
Columns and labels:
[1] = target: ABL1(F317I) (Homo sapiens, UniProt P00519, F317I); details: 0.1 µM, binder
[2] = target: ABL1(T315I) (Homo sapiens, UniProt P00519, T315I); details: 0.1 µM, binder
[3] = target: AKT1 (Homo sapiens, UniProt P31749); details: 0.1 µM; binder
[4] = target: BRAF (Homo sapiens, UniProt P15056); details: 0.1 µM; binder
[5] = target: CLK4 (Homo sapiens, UniProt Q9HAZ1); details: 0.1 µM; binder
[6] = target: CSF1R (Homo sapiens, UniProt P07333); details: 0.1 µM, binder
[7] = target: CSNK1A1 (Homo sapiens, UniProt P48729); details: 0.1 µM; binder
[8] = target: CSNK1A1L (Homo sapiens, UniProt Q8N752); details: 0.1 µM; binder
[9] = target: EGFR(L858R) (Homo sapiens, UniProt P00533, L858R); details: 0.1 µM; binder
[10] = target: FES (Homo sapiens, UniProt P07332); details: 0.1 µM; binder
[11] = target: FYN (Homo sapiens, UniProt P06241); details: 0.1 µM; binder
[12] = target: GRK7 (Homo sapiens, UniProt Q8WTQ7); details: 0.1 µM; binder
[13] = target: HIPK4 (Homo sapiens, UniProt Q8NE63); details: 0.1 µM; binder
[14] = target: KIT(A829P) (Homo sapiens, UniProt P10721, A829P); details: 0.1 µM; binder
[15] = target: LZK (Homo sapiens, UniProt O43283); details: 0.1 µM; binder
[16] = target: MAP3K2 (Homo sapiens, UniProt Q9Y2U5); details: 0.1 µM; binder
[17] = target: MATK (Homo sapiens, UniProt P42679); details: 0.1 µM; binder
[18] = target: MERTK (Homo sapiens, UniProt Q12866); details: 0.1 µM; binder
[19] = target: MST1R (Homo sapiens, UniProt Q04912); details: 0.1 µM; binder
[20] = target: NEK9 (Homo sapiens, UniProt Q8TD19); details: 0.1 µM; binder
[21] = target: PNCK (Homo sapiens, UniProt Q6P2M8); details: 0.1 µM; binder
[22] = target: RET(M918T) (Homo sapiens, UniProt P07949, M918T); details: 0.1 µM; binder
[23] = target: RIOK3 (Homo sapiens, UniProt O14730); details: 0.1 µM; binder
[24] = target: ROS1 (Homo sapiens, UniProt P08922); details: 0.1 µM; binder
[25] = target: SGK2 (Homo sapiens, UniProt Q9HBY8); details: 0.1 µM; binder
[26] = target: SIK2 (Homo sapiens, UniProt Q9H0K1); details: 0.1 µM; binder
[27] = target: SRPK2 (Homo sapiens, UniProt P78362); details: 0.1 µM; binder
[28] = target: SgK110 (Homo sapiens, UniProt P0C264); details: 0.1 µM; binder
[29] = target: TLK2 (Homo sapiens, UniProt Q86UE8); details: 0.1 µM; binder
[30] = target: p38-beta (Homo sapiens, UniProt Q15759); details: 0.1 µM; binder
Sequence of p38-beta (Q15759 whole entry): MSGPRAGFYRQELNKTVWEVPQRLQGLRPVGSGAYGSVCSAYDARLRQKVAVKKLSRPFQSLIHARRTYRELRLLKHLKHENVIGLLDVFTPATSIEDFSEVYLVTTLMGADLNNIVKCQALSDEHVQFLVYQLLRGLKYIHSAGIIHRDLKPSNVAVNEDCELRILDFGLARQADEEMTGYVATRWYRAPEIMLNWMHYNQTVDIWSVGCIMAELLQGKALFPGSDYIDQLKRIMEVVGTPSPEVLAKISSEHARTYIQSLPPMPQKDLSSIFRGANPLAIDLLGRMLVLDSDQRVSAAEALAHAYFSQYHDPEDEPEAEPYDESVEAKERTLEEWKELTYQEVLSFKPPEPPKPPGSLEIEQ

Sequence of CSF1R (P07333 whole entry): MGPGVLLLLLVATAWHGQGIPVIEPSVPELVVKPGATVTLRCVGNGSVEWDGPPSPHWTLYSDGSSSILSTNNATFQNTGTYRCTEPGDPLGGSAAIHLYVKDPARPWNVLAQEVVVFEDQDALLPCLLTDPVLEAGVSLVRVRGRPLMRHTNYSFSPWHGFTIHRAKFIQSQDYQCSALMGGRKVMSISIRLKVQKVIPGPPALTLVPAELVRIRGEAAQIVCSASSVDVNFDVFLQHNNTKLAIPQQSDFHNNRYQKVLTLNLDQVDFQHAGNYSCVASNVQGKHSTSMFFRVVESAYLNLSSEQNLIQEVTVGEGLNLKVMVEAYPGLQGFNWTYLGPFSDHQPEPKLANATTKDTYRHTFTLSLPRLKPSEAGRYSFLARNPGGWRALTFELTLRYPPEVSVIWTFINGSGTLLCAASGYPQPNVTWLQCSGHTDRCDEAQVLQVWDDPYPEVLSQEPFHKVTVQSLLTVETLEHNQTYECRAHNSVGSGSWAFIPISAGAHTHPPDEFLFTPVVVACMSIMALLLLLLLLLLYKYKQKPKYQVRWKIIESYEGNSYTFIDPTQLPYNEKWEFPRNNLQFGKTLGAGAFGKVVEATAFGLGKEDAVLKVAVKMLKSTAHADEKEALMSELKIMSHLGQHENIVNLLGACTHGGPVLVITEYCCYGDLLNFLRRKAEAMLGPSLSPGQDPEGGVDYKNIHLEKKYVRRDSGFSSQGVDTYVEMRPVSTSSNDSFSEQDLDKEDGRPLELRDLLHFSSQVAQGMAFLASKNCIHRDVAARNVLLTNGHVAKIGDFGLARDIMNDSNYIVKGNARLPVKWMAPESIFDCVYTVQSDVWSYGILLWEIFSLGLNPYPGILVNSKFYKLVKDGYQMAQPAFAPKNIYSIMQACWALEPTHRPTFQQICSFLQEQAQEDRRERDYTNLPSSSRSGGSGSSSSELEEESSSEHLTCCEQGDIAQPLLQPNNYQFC
Sequence of MST1R (Q04912 whole entry): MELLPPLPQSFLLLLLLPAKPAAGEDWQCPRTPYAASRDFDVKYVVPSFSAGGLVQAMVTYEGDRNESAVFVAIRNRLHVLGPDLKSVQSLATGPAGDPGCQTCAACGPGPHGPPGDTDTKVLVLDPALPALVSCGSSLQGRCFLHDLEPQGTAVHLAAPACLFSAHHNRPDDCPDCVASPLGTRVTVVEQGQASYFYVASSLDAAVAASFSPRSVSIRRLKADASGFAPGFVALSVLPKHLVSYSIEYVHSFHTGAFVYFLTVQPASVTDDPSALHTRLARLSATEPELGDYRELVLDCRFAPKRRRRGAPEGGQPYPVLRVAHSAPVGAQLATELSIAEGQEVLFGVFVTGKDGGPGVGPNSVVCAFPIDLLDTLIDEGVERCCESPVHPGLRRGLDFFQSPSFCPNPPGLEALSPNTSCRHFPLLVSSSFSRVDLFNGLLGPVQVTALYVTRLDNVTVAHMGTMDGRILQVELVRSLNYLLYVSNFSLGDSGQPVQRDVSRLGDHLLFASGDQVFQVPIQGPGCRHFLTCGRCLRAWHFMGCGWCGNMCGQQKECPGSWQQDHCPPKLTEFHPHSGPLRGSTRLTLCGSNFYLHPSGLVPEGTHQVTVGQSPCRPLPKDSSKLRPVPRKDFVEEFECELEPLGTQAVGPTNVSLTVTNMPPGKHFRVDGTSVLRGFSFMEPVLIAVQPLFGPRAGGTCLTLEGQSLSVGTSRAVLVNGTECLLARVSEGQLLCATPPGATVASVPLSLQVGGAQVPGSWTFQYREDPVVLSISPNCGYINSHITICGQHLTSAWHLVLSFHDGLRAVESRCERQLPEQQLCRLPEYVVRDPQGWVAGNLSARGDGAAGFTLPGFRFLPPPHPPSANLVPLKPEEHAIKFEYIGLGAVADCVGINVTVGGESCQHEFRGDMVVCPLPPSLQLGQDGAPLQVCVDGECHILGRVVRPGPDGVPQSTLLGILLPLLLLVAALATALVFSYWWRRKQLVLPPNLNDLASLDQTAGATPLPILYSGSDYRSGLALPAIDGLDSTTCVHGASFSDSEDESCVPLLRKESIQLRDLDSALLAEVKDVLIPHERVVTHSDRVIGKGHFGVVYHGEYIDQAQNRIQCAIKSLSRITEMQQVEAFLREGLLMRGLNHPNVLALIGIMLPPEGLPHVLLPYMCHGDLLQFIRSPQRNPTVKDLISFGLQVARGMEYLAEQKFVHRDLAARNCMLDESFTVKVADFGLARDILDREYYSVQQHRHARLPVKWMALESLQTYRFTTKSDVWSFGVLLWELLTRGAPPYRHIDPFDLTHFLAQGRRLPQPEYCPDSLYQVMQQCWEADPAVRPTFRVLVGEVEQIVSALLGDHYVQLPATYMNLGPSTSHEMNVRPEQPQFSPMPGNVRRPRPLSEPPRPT
Sequence of PNCK (Q6P2M8 whole entry): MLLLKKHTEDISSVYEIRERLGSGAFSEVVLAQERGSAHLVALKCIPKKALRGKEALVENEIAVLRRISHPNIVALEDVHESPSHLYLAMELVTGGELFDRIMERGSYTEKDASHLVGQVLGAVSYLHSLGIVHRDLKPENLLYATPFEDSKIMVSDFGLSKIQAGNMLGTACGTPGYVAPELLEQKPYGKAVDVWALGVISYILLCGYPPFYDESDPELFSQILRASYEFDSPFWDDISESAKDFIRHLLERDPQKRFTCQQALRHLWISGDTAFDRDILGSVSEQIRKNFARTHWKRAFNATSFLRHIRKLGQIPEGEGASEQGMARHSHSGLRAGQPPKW
Sequence of HIPK4 (Q8NE63 whole entry): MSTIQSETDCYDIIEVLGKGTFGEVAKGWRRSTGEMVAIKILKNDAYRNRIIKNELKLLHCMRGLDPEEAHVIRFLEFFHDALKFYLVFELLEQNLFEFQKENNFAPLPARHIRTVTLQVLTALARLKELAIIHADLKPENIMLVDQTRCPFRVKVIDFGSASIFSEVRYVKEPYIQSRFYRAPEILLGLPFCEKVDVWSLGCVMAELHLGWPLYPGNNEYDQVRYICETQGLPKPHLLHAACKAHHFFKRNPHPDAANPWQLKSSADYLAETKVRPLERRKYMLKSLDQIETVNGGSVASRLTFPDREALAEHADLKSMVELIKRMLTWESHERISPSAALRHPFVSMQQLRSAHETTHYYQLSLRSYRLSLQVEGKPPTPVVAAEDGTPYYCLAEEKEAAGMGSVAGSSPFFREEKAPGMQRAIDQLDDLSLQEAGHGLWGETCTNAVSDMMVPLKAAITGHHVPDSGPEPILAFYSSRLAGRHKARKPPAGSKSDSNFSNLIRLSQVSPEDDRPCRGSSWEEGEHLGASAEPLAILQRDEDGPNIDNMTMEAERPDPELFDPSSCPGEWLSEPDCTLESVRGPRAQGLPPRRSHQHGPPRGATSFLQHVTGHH
Sequence of SGK2 (Q9HBY8 whole entry): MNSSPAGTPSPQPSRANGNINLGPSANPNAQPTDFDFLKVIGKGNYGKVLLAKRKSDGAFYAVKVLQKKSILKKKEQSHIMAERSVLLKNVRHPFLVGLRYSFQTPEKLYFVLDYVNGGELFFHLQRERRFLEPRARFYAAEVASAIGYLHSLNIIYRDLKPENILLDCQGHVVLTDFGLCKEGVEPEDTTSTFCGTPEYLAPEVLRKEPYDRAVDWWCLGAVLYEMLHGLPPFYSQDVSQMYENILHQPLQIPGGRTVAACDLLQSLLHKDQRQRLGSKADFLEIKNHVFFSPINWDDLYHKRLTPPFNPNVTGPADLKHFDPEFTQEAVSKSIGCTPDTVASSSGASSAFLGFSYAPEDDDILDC
Sequence of MERTK (Q12866 whole entry): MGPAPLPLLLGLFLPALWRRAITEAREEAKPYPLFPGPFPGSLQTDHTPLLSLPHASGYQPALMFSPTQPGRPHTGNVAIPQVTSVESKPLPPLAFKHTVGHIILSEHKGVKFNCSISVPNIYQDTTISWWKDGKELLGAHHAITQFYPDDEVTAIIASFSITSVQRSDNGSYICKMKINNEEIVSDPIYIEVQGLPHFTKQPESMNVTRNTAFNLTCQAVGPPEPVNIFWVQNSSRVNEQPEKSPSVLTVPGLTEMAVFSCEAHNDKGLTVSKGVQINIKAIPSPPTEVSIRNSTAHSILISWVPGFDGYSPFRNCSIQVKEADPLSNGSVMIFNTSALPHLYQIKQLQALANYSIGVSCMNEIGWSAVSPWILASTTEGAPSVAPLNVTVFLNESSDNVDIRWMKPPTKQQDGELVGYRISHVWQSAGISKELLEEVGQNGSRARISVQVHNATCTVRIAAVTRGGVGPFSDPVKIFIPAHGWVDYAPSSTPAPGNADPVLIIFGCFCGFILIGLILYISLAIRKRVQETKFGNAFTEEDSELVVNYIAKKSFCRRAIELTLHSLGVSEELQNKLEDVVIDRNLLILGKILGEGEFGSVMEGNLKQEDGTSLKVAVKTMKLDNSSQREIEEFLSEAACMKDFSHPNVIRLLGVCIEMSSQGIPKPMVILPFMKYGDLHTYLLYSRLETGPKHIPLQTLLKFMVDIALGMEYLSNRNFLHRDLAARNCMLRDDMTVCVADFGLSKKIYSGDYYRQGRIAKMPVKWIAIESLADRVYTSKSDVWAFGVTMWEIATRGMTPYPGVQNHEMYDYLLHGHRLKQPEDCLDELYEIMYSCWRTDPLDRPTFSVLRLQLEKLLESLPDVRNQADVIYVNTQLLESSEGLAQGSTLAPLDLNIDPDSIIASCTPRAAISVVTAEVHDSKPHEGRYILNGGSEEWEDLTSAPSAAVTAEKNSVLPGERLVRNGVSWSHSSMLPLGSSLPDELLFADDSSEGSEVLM

CNc1ncc2cc(-c3ccc(-c4cccc(C)n4)cc3Cl)c(=O)n(C[C@H]3OC[C@H](N)CO3)c2n1 [compound 6, G-5555]
Percent Control ([1]; nonphosphorylated): 100%
Percent Control ([1]; phosphorylated): 87%
Percent Control ([2]; nonphosphorylated): 90%
Percent Control ([2]; phosphorylated): 100%
Percent Control [3]: 100%
Percent Control [4]: 100%
Percent Control [5]: 97%
Percent Control [6]: 89%
Percent Control ([6]; autoinhibited): 97%
Percent Control [7]: 100%
Percent Control [8]: 100%
Percent Control [9]: 100%
Percent Control [10]: 100%
Percent Control [11]: 100%
Percent Control [12]: 89%
Percent Control [13]: 95%
Percent Control [14]: 81%
Percent Control [15]: 100%
Percent Control [16]: 97%
Percent Control [17]: 100%
Percent Control [18]: 95%
Percent Control [19]: 73%
Percent Control [20]: 100%
Percent Control [21]: 97%
Percent Control [22]: 100%
Percent Control [23]: 85%
Percent Control [24]: 100%
Percent Control [25]: 100%
Percent Control [26]: 6.5%
Percent Control [27]: 98%
Percent Control [28]: 56%
Percent Control [29]: 100%
Percent Control [30]: 97%

From article doi:10.1101/2021.04.08.439011v1 (biorxiv, 2021)
